Measurements as given in patent US12275731B2, “Azaindole inhibitors of wild-type and mutant forms of LRRK2” (DANA-FARBER CANCER INSTITUTE, INC., priority 2018, dated 2025).

Key:
Assay in all cases: KinomeScan profiling
Format in all cases: binding
[1] = molecular target: CDK2 (Homo sapiens, UniProt P24941); conditions: CDK2, 1 μM; read-out: % control
Summary of the method: (§1)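 First, compounds in DMSO are added at 1 μM to each of 468 kinase assays. Next, RLU signals are normalised between positive control (0%) and DMSO (100%). Finally, kinases under 35% are flagged active.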

[2] = molecular target: MARK1 (Homo sapiens, UniProt Q9P0L2); conditions: MARK1, 1 μM; read-out: % control
MARK1, sequence (Q9P0L2 whole entry): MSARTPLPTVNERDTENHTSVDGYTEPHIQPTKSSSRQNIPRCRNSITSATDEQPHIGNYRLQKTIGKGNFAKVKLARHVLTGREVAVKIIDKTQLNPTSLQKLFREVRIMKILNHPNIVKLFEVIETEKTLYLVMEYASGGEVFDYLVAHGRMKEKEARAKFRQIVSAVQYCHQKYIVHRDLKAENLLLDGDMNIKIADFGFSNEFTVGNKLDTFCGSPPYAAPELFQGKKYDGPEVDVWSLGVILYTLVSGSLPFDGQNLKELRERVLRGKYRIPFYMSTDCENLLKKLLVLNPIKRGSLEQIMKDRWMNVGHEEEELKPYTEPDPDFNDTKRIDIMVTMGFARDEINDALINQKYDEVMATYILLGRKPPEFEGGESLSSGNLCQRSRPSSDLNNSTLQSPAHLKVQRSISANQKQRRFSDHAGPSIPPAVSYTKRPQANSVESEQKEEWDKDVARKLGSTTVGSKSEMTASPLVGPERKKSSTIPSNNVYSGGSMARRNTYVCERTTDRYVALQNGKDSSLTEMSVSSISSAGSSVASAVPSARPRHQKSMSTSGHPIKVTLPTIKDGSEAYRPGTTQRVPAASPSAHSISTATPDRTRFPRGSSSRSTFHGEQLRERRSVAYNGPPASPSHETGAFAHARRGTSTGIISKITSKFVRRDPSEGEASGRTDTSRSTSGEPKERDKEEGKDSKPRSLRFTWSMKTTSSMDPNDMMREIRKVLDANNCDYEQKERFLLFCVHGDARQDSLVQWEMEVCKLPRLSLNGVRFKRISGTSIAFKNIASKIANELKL
Summary of the method: as §1

[3] = molecular target: PRP4 (Homo sapiens, UniProt Q13523); conditions: PRP4, 1 μM; read-out: % control
PRP4, sequence (Q13523 whole entry): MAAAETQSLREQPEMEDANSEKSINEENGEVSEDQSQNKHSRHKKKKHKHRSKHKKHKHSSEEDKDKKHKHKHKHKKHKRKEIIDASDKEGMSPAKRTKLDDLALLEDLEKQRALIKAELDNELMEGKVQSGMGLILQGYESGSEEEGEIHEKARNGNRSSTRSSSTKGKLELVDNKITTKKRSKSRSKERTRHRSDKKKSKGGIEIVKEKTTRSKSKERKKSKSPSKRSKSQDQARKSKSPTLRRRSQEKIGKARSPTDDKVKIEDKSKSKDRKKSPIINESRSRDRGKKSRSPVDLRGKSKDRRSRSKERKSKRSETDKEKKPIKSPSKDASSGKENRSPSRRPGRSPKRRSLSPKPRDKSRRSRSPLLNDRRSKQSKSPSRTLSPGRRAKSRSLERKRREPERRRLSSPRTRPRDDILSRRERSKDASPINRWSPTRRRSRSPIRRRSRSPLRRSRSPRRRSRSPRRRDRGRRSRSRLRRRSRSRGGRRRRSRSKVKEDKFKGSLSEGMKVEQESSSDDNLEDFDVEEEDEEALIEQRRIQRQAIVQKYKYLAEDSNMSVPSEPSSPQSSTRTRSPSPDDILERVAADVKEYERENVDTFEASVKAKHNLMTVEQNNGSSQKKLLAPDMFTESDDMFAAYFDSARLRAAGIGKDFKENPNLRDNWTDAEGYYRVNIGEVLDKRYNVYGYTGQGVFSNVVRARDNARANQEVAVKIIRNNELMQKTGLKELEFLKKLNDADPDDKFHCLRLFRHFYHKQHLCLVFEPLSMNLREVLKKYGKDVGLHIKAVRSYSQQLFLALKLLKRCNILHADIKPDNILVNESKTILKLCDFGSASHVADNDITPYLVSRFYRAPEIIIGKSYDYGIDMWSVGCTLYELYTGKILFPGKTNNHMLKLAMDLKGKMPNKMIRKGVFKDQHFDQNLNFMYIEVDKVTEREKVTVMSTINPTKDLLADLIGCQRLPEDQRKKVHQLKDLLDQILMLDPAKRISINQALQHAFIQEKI
Summary of the method: as §1

[4] = molecular target: T1, SRPK3 (Homo sapiens, UniProt Q9UPE1); conditions: SRPK3, 1 μM; read-out: % control
T1 construct: purchased KinomeScan® (panel service)
T1 sequence (Q9UPE1 whole entry): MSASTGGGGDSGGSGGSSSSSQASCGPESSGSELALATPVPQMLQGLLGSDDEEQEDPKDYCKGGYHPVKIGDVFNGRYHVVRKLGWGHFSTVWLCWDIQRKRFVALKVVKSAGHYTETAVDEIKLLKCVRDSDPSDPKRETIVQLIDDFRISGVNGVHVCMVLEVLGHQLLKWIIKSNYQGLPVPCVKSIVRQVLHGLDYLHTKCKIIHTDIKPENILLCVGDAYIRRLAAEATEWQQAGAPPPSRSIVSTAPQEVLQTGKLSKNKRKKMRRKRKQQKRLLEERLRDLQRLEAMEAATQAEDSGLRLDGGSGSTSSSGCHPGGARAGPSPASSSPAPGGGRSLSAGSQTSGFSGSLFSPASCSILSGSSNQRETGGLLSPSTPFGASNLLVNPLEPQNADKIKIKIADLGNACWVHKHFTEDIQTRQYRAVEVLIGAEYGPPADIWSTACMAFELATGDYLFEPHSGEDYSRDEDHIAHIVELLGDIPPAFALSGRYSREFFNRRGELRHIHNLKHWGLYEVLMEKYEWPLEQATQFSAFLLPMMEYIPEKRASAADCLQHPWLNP
Summary of the method: as §1

[5] = molecular target: T2, KIT-autoinhibited (Homo sapiens, UniProt P10721); conditions: read-out: % control
T2 construct: purchased KinomeScan®
T2 sequence (P10721 544-976 limits assumed): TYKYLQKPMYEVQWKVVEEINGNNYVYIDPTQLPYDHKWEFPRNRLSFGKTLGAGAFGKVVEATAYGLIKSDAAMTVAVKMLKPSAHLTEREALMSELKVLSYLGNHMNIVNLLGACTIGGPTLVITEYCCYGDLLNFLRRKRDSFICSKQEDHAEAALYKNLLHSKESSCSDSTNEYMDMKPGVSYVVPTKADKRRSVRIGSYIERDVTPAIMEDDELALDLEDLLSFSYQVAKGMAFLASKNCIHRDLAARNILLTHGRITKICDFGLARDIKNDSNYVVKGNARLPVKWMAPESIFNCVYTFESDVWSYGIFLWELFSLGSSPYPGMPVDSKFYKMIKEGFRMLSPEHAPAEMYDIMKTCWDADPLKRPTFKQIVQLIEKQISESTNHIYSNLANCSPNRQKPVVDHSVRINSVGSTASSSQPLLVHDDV
Summary of the method: as §1

[6] = molecular target: EPHA7 (Homo sapiens, UniProt Q15375); conditions: EPHA7, 1 μM; read-out: % control
EPHA7, sequence (Q15375 28-998): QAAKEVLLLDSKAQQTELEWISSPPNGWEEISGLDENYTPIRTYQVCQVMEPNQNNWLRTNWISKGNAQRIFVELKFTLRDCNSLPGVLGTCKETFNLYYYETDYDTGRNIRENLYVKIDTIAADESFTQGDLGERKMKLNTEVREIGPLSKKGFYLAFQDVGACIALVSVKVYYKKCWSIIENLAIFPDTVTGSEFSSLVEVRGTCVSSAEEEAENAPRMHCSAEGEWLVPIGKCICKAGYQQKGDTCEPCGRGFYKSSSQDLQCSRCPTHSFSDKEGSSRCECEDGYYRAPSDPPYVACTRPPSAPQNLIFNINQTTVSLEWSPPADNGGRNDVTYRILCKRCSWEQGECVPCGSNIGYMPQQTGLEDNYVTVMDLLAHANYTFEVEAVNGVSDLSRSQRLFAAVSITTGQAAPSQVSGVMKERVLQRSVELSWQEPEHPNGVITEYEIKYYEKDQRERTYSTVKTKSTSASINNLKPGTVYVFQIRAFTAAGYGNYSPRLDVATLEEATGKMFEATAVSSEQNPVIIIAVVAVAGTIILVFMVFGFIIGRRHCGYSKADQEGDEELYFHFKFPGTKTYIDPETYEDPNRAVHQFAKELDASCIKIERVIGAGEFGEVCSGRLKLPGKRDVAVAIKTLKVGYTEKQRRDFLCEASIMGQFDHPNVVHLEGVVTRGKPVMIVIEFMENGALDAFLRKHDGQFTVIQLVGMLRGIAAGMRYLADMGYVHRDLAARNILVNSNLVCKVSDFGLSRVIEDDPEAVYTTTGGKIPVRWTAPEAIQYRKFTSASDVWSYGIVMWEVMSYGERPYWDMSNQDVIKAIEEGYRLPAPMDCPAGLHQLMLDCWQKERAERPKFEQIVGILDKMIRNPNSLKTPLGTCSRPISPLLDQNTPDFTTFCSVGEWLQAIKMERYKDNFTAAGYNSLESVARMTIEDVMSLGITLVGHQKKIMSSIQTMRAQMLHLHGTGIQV
Summary of the method: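 Compounds were screened at 1 μM in DMSO across a 468-kinase KinomeScan panel. Binding was expressed as % control, scaled between a positive control (0%) and DMSO (100%) using luminescence signal. A value under 35% counted as active.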

[7] = molecular target: T3, ITK (Homo sapiens, UniProt Q08881); conditions: read-out: % control
T3 construct: purchased KinomeScan®
T3 sequence (Q08881 1-620): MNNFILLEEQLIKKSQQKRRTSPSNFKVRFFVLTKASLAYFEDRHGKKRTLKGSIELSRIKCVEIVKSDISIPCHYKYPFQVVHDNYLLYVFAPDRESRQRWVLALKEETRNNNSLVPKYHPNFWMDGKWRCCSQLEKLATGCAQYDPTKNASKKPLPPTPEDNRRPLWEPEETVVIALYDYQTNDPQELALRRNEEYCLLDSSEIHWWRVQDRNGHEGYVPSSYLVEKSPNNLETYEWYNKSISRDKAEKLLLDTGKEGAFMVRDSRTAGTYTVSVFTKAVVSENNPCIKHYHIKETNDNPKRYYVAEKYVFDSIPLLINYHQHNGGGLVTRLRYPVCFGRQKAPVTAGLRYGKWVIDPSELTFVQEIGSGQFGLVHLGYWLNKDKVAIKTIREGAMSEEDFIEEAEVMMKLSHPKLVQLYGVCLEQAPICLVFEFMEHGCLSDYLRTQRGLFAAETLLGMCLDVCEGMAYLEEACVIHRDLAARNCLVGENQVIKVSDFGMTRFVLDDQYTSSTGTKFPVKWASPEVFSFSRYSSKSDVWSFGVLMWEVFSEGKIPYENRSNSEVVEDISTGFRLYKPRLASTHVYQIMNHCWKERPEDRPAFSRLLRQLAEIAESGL
Summary of the method: as §1

[8] = molecular target: T4, NEK5 (Homo sapiens, UniProt Q6P3R8); conditions: NEK5, 1 μM; read-out: % control
T4 sequence (Q6P3R8 1-708): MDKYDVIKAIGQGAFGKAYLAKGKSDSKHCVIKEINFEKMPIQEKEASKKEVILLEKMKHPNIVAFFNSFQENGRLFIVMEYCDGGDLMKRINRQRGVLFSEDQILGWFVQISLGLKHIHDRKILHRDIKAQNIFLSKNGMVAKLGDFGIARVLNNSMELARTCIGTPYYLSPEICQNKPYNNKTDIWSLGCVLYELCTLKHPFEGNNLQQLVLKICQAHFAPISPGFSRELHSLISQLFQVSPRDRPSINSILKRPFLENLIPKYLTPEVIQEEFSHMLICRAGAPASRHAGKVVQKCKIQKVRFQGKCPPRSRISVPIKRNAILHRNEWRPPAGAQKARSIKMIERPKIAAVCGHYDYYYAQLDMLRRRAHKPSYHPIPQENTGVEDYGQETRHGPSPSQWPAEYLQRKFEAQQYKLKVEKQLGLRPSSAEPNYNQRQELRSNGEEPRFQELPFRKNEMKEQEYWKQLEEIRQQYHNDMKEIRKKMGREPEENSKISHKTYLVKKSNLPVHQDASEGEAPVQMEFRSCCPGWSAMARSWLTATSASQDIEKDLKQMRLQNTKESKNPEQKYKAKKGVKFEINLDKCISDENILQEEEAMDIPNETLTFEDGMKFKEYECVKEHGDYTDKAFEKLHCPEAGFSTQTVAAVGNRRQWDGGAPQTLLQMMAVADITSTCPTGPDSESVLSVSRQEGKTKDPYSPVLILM
Summary of the method: as §1

[9] = molecular target: T5, JNK1 (Homo sapiens, UniProt P45983); conditions: JNK1, 1 μM; read-out: % control
T5 construct: purchased KinomeScan®
T5 sequence (P45983 whole entry): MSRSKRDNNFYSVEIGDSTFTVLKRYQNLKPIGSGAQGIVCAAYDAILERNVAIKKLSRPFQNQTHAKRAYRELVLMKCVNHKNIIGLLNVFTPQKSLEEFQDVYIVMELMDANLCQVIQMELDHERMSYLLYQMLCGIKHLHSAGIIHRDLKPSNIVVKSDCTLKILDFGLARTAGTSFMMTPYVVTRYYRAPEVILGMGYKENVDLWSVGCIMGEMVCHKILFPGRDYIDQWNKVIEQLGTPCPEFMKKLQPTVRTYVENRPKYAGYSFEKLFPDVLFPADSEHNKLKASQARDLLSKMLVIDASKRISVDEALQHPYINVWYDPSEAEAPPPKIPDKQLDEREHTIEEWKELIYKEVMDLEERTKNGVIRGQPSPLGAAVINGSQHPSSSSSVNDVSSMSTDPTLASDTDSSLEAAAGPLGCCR
Summary of the method: as §1

[10] = molecular target: TRKC (Homo sapiens, UniProt Q16288); conditions: read-out: % control
TRKC, sequence (Q16288 32-839): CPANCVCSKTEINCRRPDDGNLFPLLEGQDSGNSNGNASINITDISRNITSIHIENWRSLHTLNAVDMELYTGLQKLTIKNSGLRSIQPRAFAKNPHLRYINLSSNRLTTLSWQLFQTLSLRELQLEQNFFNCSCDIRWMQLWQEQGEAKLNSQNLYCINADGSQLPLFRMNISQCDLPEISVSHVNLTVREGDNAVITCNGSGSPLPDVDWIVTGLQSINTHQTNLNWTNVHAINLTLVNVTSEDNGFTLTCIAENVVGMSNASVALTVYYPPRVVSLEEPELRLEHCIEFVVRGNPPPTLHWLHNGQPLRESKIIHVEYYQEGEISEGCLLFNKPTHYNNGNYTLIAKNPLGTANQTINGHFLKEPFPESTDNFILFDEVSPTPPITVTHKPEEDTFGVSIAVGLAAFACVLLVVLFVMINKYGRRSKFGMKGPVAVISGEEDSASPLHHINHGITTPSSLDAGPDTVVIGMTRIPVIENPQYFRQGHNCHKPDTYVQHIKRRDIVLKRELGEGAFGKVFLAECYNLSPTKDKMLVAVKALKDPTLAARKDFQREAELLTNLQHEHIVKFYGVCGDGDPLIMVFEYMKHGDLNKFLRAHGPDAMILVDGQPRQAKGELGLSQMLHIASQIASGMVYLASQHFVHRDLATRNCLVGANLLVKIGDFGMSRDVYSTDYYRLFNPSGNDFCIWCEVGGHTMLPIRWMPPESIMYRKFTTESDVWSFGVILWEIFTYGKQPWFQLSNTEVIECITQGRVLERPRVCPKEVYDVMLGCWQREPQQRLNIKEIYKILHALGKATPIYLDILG
Summary of the method: as §1

[11] = molecular target: T6, NLK (Homo sapiens, UniProt Q9UBE8); conditions: read-out: % control
T6 sequence (Q9UBE8 1-527): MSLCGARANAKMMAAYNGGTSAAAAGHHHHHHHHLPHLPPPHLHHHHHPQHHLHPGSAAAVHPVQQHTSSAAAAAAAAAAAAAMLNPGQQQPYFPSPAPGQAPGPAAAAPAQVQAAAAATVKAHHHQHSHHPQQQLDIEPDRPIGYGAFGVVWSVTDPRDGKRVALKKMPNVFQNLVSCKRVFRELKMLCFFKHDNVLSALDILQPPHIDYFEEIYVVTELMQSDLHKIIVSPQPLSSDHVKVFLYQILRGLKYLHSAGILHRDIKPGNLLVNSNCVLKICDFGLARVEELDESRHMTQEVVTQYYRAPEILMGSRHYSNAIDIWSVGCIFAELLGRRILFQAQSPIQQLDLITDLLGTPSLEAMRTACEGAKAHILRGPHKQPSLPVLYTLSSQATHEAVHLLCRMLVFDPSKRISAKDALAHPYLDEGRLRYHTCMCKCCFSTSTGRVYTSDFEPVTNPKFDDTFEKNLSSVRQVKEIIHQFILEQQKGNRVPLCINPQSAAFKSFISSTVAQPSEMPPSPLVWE
Summary of the method: as §1

## CNc1c(-c2cnn([C@H]3CCN(C(C)=O)C[C@@H]3F)c2)cnc2[nH]cc(Cl)c12 [Compound 77, 1-((3S,4S)-4-(4-(3-chloro-4-(methylamino)-1H-pyrrolo[2,3-b]pyridin-5-yl)-1H-pyrazol-1-yl)-3-fluoropiperidin-1-yl)ethan-1-one]
[1]
  remaining binding at 1 µM: 100%
[2]
  remaining binding at 1 µM: 71%
[3]
  remaining binding at 1 µM: 14%
[4]
  remaining binding at 1 µM: 16%
[5]
  remaining binding at 1 µM: 23%
[6]
  remaining binding at 1 µM: 78%
[7]
  remaining binding at 1 µM: 71%
[8]
  remaining binding at 1 µM: 79%
[9]
  remaining binding at 1 µM: 1.1%
[10]
  remaining binding at 1 µM: 51%
[11]
  remaining binding at 1 µM: 95%

## O=C(c1ccc(-c2cnc3[nH]cc(Cl)c3c2NC2CCCC2)cc1)N1CCC(N2CCOCC2)CC1 [Compound 101, (4-(3-chloro-4-(cyclopentylamino)-1H-pyrrolo[2,3-b]pyridin-5-yl)phenyl)(4-morpholinopiperidin-1-yl)methanone]
[1]
  remaining binding at 1 µM: 100%
[2]
  remaining binding at 1 µM: 80%
[3]
  remaining binding at 1 µM: 38%
[4]
  remaining binding at 1 µM: 9.9%
[5]
  remaining binding at 1 µM: 100%
[6]
  remaining binding at 1 µM: 96%
[7]
  remaining binding at 1 µM: 90%
[8]
  remaining binding at 1 µM: 99%
[9]
  remaining binding at 1 µM: 7.1%
[10]
  remaining binding at 1 µM: 100%
[11]
  remaining binding at 1 µM: 88%

## CNc1c(-c2ccc(C(=O)N3CCC(N4CCOCC4)CC3)cc2)cnc2[nH]cc(Cl)c12 [Compound 96, (4-(3-chloro-4-(methylamino)-1H-pyrrolo[2,3-b]pyridin-5-yl)phenyl)(4-morpholinopiperidin-1-yl)methanone]
[1]
  remaining binding at 1 µM: 100%
[2]
  remaining binding at 1 µM: 72%
[3]
  remaining binding at 1 µM: 47%
[4]
  remaining binding at 1 µM: 17%
[5]
  remaining binding at 1 µM: 64%
[6]
  remaining binding at 1 µM: 96%
[7]
  remaining binding at 1 µM: 93%
[8]
  remaining binding at 1 µM: 99%
[9]
  remaining binding at 1 µM: 0.05%
[10]
  remaining binding at 1 µM: 82%
[11]
  remaining binding at 1 µM: 100%
